From patent US20110201023A1, “MANNOSE 6-PHOSPHATE-BINDING ANTIBODIES AND THEIR USES” (UNIVERSITATSKLINKUM HAMBURGEPPENDORF, priority 2008, published 2011)
Values belong to the molecule of their own block, whether it stands above or below them.

How the values were obtained:
scFv M6P-1 = assay: ELISA inhibition study: binding of scFv M6P-1 to immobilized PMP-BSA; set-up: species or system rabbit; conditions: for IC50: scFv 0.6 μg/ml preincubated 1 h at 37° C. with 0.01 to 100 mM inhibitor, 45 pmol/cup PMP-BSA, read-out: 50% inhibition (IC50 value) of scFv M6P-1 binding to PMP-BSA; for inhibition of the binding of scFv M6P-1 to PMP-BSA: even at high concentrations (0.01 to 100 mM tested)
Experimental: ELISA was performed according to the protocol published in Phage-Display: A Laboratory Manual, Cold Spring Harbor Laboratory Press, New York (2001), protocol 19.8, pages 19.29-19.31. For ELISA using monoclonal phage or soluble scFv, PMP-BSA was immobilized by addition of 2.25 pmol neoglycoconjugate (45 pmol PMP ligand, solution in 50 mM carbonate buffer, pH 9.2) to each cup of the ELISA plates (MaxiSorp, Nunc) and overnight incubation at 4° C. Phages were detected using an anti-M13 monoclonal antibody (mAb) HRP-conjugate (GE Healthcare, Freiburg, Germany) and diammonium 2,2′-azino-bis(3-ethylbenzothiazoline-6-sulfonate (AzBTS-(NH4)2, Sigma-Aldrich) as substrate. For scFv-ELISA against PMP-BSA, purified scFv was added at a starting concentration of 5 μg/ml. Bound scFv was detected by incubation with anti-c-myc mAb (gift from Dr. C. R. MacKenzie, NRC of Canada, Ottawa, Canada) and HRP-conjugated goat-anti-mouse IgG H+L (Dianova, Hamburg, Germany). For ELISA inhibition studies, 45 pmoles PMP-BSA were immobilized on ELISA plates. Monomeric scFv M6P-1 was freshly prepared by gelfiltration (see above). Antibody fragment scFv (0.6 μg/ml final concentration) was preincubated for 1 h at 37° C. with or without 0.01 to 100 mM of mannose, glucose, glucose-6-phosphate (Glc6P), Fru1P, or Man6P. 50 μl scFv M6P-1 were added to PMP-BSA (45 pmol/cup ligand concentration). Bound scFv M6P-1 was quantified after incubation (i) with an antibody directed against the c-myc tag of the antibody scFv M6P-1 and (ii) a HRP-conjugated goat-anti-mouse H/L antibody. The […] reaction was measured spectrophotometrically at OD405. All data were measured in quadruplicates and the standard deviation from the mean is indicated. The data were analyzed using Origin version 6.0 software (MicroCal, Northampton, USA) and fitted to a 4 parameter logistic function. The data obtained for inhibition by Man6P and Fru1P were globally fitted to the four replicate data sets, each separately.

[1] = tested on: scFv M6P-1 conjugated beads / [125I]ASA (human arylsulfatase A); assay: Immunoprecipitation of [125I]ASA with scFv M6P-1 conjugated beads; format: binding
Experimental: Monomeric or dimeric scFv M6P-1 (about 1 mg/ml in PBS, pH 7.2) isolated by gel filtration (see above) was chemically immobilized to AminoLink Plus Coupling gel beads (Pierce, USA) following the suppliers instructions (1 mg scFv M6P-1 was coupled to 2 ml of settled beads). Human arylsulfatase A (ASA)(kindly provided by Dr. […]; Institute for Biochemistry, University of Bielefeld, Germany) was purified by affinity chromatography from media of BHK cells which overexpress the enzyme as described by Sommerlade et al. (1994) Biochem. J. 297, 123-130 and iodinated with IODO-GEN (Pierce) according to the manufacturer's instructions yielding [^125I]ASA with a specific activity of 2 μCi/μg. [^125I]ASA (400,000 cpm) was incubated with 50 μl scFv M6P-1 conjugated beads in 10 mM phosphate buffered saline pH 7.4 containing 0.05% Triton X-100 in a final volume of 0.5 ml in the absence or presence of increasing concentrations of Man6P for 10 h at 4° C. Subsequently, the beads were spun down at 1,200×g for 20 sec, and the supernatant was removed. The beads were washed three times with ice-cold binding buffer, twice with 1 mM phosphate buffered saline pH 7.4, and solubilized in SDS sample buffer. After removal of the beads, the supernatants were separated by SDS-PAGE (10% acrylamide), and the [^125I]ASA was visualized by autoradiography using Kodak films. The intensity of the [^125I]-labeled polypeptides was evaluated by densitometry. Alternatively, the [^125I]-labeled polypeptides were excised from the dried gel and counted in a γ-counter (Wizard 1470, Wallac, Turku, Finland).

[2] = Isothermal titration microcalorimetry; conditions: dimeric scFv M6P-1 in PBS pH 7.2; 10 mM Man6P injected; read-out: Kd for the binding of scFv M6P-1 to Man6P
Experimental: The comparison of IC50 values allows the ranking of different ligands according to their relative affinities, however, the absolute affinities in terms of Kd can not be obtained. Therefore, isothermal titration microcalorimetry measurements using Man6P as a ligand were performed. Purified dimeric scFv M6P-1 obtained after gel filtration (both a monomer and a dimer fraction are obtained) was concentrated in Centriprep YM-10 (Millipore) to a final concentration of 2.7 mg/ml in PBS, pH 7.2 and dialysed for 1 h at 20° C. against 500 ml of PBS. The same dialysis buffer was used for preparation of a 10 mM solution of Man6P (Na^+ salt, Sigma-Aldrich). Microcalorimetric experiments were performed on an MCS isothermal titration calorimeter (Microcal Inc., Northampton, Mass., USA). The microcalorimeter cell was filled with the antibody solution (volume=1.5 ml) and Man6P in dialysis buffer loaded into the syringe of the microcalorimeter. Both solutions were thoroughly degassed prior to loading. After temperature equilibration, the ligand was injected into the cell in 4 μl portions and the evolved heat measured with the first injection (1 μl) not considered for data analysis. […] Dissociation constants were determined using the MicroCal Origin version 2.9 analysis software and non-linear least squares curve fitting (1 set of binding sites).

PMP-BSA = assay: Phage ELISA against PMP-BSA; format: binding; conditions: 1:3 (v/v) dilutions of phage
Experimental: The reactivity of the enriched polyclonal phage was tested in an ELISA checkerboard titration against different concentrations of PMP-BSA (3-100 pmol/cup calculated for PMP concentration). At 50 pmol/cup reactivity of the polyclonal phage was observed selectively for PMP-BSA but not for BSA. BstOI (Promega GmbH, Germany) restriction digest of 20 colony PCR products indicated the presence of 7 different clones (4× type A, 10× type B, 2× type C and 1× types D-G). Twelve colonies representing the different types of sequences (5× type B, 2× type A, 1× each of types C-G) were selected for phage production and 1:3 (v/v) dilutions of phage were tested in ELISA against PMP-BSA. […]
ELISA was performed according to the protocol published in Phage-Display: A Laboratory Manual, Cold Spring Harbor Laboratory Press, New York (2001), protocol 19.8, pages 19.29-19.31. […] Phages were detected using an anti-M13 monoclonal antibody (mAb) HRP-conjugate (GE Healthcare, Freiburg, Germany) and diammonium 2,2′-azino-bis(3-ethylbenzothiazoline-6-sulfonate (AzBTS-(NH4)2, Sigma-Aldrich) as substrate. For scFv-ELISA against PMP-BSA, purified scFv was added at a starting concentration of 5 μg/ml. Bound scFv was detected by incubation with anti-c-myc mAb (gift from Dr. C. R. MacKenzie, NRC of Canada, Ottawa, Canada) and HRP-conjugated goat-anti-mouse IgG H+L (Dianova, Hamburg, Germany).

IC50 (scFv M6P-1): 1100 µM
Molecule: O=P(O)(O)OC[C@@]1(O)OC[C@@H](O)[C@@H](O)[C@@H]1O [Fru1P, β-D-fructopyranose-1-phosphate]

inhibition of the binding of scFv M6P-1 to PMP-BSA (scFv M6P-1): Neither
effect on binding of [125I]-ASA to the antibody beads ([1]; 5 mM): no effect
Molecule: O=C[C@H](O)[C@@H](O)[C@H](O)[C@H](O)COP(=O)(O)O [Glc6P, glucose 6-phosphate]

IC50 (scFv M6P-1): 2300 µM
inhibition of binding of [125I]-ASA to the antibody beads ([1]; Man6P in a concentration of more than 2.5 mM): completely inhibited
Ki ([1]; calculated from densitometric evaluation of autoradiographs or radioactivity in excised bands): 100 µM
Molecule: O=C[C@@H](O)[C@@H](O)[C@H](O)[C@H](O)COP(=O)(O)O [Man6P, mannose 6-phosphate]

inhibition of the binding of scFv M6P-1 to PMP-BSA (scFv M6P-1): Neither
Molecule: O=C[C@@H](O)[C@@H](O)[C@H](O)[C@H](O)CO [mannose]

Kd [2]: 28 µM
total offered [125I]-ASA bound specifically to the scFv M6P-1 conjugated beads ([1]; 10 h at 4° C., absence of Man6P): 20-25%
B1: scFv M6P-1: recombinant rabbit single-chain antibody fragment which specifically binds mannose 6-phosphate; VL SEQ ID NO:7, VH SEQ ID NO:8 (antibody, listed as Oryctolagus cuniculus, V domains shown)
VH: QSVKESEGDLVKPGASLTLTCKASGFDFTWYTMNWVRQAPGKGLEWIACIGAGVYGSNYYASWAKGRFTISKASSTTVTLQMTSLTVADTATYFCARDGINGGYDIWGPGTLVTVSS
VL: ELVMTQTESPVSAAVGGTVTIKCQSSQSVYNNRLAWYQQKPGQRPKLLIYSASTLASGVPSRFKGSGSGTQFTLTISDLEWGDAATYYCHGGYRSNDDRYAFSGGTELEIL
modifications: scFv linker not given
reactivity of monoclonal phage in ELISA against PMP-BSA (PMP-BSA): reacted
